The numbers were not newly measured in patent US11142559B2, “Glucagon derivative, conjugate thereof, composition comprising same, and therapeutic use thereof” (HANMI PHARM. CO., LTD, priority 2016, dated 2021), which cites them from elsewhere.

For this data set the following is noted: when taken for one year, according to a report.

With `CCCCCCCCCCC[C@@H](C[C@@H]1OC(=O)[C@H]1CCCCCC)OC(=O)[C@H](CC(C)C)NC=O` [Orlistat], the weight loss entry is given as “about 4 kg”.
